Experimental data from US8791132B2, “Compounds and methods for treatment of hypertension” (Medivation Technologies, Inc., priority 2011, dated 2014).

What was measured:
[1] = biological target: T1, human recombinant adrenergic α2B receptor (Homo sapiens, UniProt P18089); assay: Radioligand binding, adrenergic α2B ([3H]Rauwolscine); conditions: for inhibition at 0.1 µM: 0.1 μM compound, read-out: Percentage inhibition of ligand binding, Adrenergic α2B
T1 construct: expressed in transfected cells; host or cells: CHO-K1
T1 sequence (P18089 1-450): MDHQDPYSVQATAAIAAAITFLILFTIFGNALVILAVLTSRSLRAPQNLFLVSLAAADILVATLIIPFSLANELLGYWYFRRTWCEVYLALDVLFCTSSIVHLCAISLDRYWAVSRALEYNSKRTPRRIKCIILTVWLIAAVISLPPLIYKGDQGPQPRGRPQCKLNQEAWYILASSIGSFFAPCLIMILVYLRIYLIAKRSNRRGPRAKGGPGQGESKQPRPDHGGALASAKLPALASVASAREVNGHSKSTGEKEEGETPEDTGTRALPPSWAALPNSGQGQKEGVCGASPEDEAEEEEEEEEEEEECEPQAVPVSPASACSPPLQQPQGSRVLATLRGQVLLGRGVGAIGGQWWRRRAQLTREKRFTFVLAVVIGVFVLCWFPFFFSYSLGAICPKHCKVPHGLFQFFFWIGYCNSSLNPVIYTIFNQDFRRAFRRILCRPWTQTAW
In short: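 Receptor expressed in CHO-K1 cells, assayed in 50 mM Tris-HCl pH 7.4 with 12.5 mM MgCl2, 1 mM EDTA and 0.2% BSA. Compounds were incubated with 2.5 nM [3H]Rauwolscine for 60 min at 25° C; 10 μM Prazosin defined non-specific binding. Filter counting gave percent inhibition of specific binding.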

[2] = biological target: T2, human recombinant adrenergic α1D receptor (Homo sapiens, UniProt P25100); assay: Radioligand binding, adrenergic α1D ([3H]Prazosin); conditions: 0.1 μM compound; read-out: Percentage inhibition of ligand binding, Adrenergic α1D
T2 construct: expressed in transfected cells; host or cells: HEK-293
T2 sequence (P25100 1-572): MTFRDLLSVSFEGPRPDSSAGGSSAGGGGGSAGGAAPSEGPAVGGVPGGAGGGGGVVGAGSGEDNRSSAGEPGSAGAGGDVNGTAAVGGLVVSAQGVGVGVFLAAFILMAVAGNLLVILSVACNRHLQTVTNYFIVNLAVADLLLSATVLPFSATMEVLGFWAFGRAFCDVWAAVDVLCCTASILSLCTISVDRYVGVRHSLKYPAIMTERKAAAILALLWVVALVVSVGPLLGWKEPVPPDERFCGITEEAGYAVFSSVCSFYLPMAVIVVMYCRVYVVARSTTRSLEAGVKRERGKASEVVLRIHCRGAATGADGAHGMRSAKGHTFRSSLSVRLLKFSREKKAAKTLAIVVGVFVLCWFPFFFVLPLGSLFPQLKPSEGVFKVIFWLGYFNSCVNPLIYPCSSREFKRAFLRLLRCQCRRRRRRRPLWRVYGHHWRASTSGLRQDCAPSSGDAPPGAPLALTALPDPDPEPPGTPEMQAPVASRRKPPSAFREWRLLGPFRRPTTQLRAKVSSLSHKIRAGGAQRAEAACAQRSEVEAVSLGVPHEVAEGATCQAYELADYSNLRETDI
Protocol: Compounds were incubated with 0.6 nM [3H]Prazosin for 60 min at 25° C. Non-specific binding was estimated in the presence of 10 μM phentolamine. Receptor proteins were filtered and washed, the filters were then counted to determine [3H]Prazosin specifically bound. […] Biochemical assay results are presented as the percent inhibition of specific binding in Table B1.

[3] = biological target: T3, human recombinant adrenergic α2A receptor (Homo sapiens, UniProt P08913); assay: Radioligand binding, adrenergic α2A ([3H]MK-912)
T3 construct: expressed in transfected cells; host or cells: insect Sf9 cells
T3 sequence (P08913 1-465): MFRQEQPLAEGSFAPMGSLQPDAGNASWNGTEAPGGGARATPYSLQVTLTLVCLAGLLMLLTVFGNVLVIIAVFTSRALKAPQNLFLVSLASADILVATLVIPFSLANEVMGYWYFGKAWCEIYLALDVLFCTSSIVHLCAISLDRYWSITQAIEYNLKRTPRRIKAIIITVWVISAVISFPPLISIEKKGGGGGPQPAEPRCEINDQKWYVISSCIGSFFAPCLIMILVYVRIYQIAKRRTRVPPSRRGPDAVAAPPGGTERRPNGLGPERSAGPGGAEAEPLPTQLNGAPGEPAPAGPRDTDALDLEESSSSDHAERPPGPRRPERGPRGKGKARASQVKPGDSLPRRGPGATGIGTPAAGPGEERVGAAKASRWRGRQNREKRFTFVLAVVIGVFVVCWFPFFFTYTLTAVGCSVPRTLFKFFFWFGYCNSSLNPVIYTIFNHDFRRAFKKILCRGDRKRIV
In short: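 Sf9-expressed receptor was incubated with compound for 60 min at 25 °C in modified Tris-HCl buffer, pH 7.4. Nonspecific binding was taken as that remaining with 10 μM WB-4101.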

[4] = biological target: T4, rat adrenergic α1B receptor (Rattus norvegicus, UniProt P15823); assay: Radioligand binding, adrenergic α1B ([3H]Prazosin); conditions: 0.1 μM compound; read-out: Percentage inhibition of ligand binding, Adrenergic α1B
T4 construct: rat adrenergic α1B receptor obtained from Wistar Rat liver; from tissue; host or cells: Wistar rat liver
T4 sequence (P15823 1-515): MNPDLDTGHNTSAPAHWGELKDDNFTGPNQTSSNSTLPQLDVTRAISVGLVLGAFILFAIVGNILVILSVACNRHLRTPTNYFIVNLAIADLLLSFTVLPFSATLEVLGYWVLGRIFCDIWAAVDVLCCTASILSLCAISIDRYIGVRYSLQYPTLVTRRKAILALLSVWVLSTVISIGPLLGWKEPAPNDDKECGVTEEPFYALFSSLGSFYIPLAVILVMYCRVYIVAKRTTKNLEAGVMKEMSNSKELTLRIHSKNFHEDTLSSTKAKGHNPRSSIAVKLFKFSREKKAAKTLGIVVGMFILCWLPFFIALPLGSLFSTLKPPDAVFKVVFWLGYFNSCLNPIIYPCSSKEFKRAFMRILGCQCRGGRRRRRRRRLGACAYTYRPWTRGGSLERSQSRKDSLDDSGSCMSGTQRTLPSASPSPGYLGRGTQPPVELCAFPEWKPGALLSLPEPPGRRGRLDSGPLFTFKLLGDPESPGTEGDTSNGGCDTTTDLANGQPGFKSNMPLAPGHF
In short: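 Incubation ran 60 min at 25 °C in Tris-HCl buffer (50 mM, pH 7.4, 0.5 mM EDTA) with Wistar rat liver α1B receptor. 10 μM phentolamine set non-specific binding.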

[5] = 0.1 μM compound, read-out: Percentage inhibition of ligand binding, Adrenergic α2A

SMILES: C/C(=C\n1c2c(c3cc(C)ccc31)CN(C)CC2)c1ccc2cnccc2c1 [compound 311]
- inhibition at 0.1 µM [1]: 97%
- inhibition at 0.1 µM [2]: 79%
- inhibition at 0.1 µM [3, 5]: 91%
- inhibition at 0.1 µM [4]: 87%

SMILES: C/C(=C\n1c2c(c3cc(C)cc(C)c31)CN(C)CC2)c1ccncc1 [compound 312]
- inhibition at 0.1 µM [1]: 93%
- inhibition at 0.1 µM [2]: 50%
- inhibition at 0.1 µM [3, 5]: 56%
- inhibition at 0.1 µM [4]: 71%

SMILES: Cc1ccc2c(c1)c1c(n2C#Cc2cccc3cnccc23)CCN(C)C1 [compound 313, 5-isoquinolin-5-ylethynyl-2,8-dimethyl-2,3,4,5-tetrahydro-1H-pyrido[4,3-b]indole]
- inhibition at 0.1 µM [1]: 73%
- inhibition at 0.1 µM [2]: 53%
- inhibition at 0.1 µM [3, 5]: 73%
- inhibition at 0.1 µM [4]: 92%

SMILES: Cc1ccc2c(c1)c1c(n2CCc2ccc(C)nc2)C(c2ccccc2)N(C)CC1 (stereo not shown) [compound 314]
- inhibition at 0.1 µM [1]: 50%
- inhibition at 0.1 µM [2]: 71%
- inhibition at 0.1 µM [3, 5]: 91%
- inhibition at 0.1 µM [4]: 92%

SMILES: Cc1ccc(CCn2c3c(c4ccc(Cl)cc42)CN(C)CC3)cn1 [compound 315]
- inhibition at 0.1 µM [1]: 48%
- inhibition at 0.1 µM [2]: 3%
- inhibition at 0.1 µM [3, 5]: 59%
- inhibition at 0.1 µM [4]: 4%

SMILES: Cc1ccc2c(c1)c1c(n2/C=C/c2cccc3cnccc23)CCN(C)C1 [compound 316, 5-(2-isoquinolin-5-yl-vinyl)-2,8-dimethyl-2,3,4,5-tetrahydro-1H-pyrido[4,3-b]indole]
- inhibition at 0.1 µM [1]: 45%
- inhibition at 0.1 µM [2]: 81%
- inhibition at 0.1 µM [3, 5]: 90%
- inhibition at 0.1 µM [4]: 93%

SMILES: Cc1ccc2c(c1)c1c(n2CCc2cccc3c2CCNC3)CCN(C)C1 [compound 317, 2,8-dimethyl-5-[2-(1,2,3,4-tetrahydro-isoquinolin-5-yl)-ethyl]-2,3,4,5-tetrahydro-1H-pyrido[4,3-b]indole]
- inhibition at 0.1 µM [1]: 7%
- inhibition at 0.1 µM [2]: 71%
- inhibition at 0.1 µM [3, 5]: 61%
- inhibition at 0.1 µM [4]: 89%

SMILES: Cc1ccc2c(c1)c1c(n2CCc2cscc2C)CCN(C)C1 [compound 318, 2,8-dimethyl-5-[2-(4-methyl-thiophen-3-yl)-ethyl]-2,3,4,5-tetrahydro-1H-pyrido[4,3-b]indole]
- inhibition at 0.1 µM [1]: 103%
- inhibition at 0.1 µM [2]: 60%
- inhibition at 0.1 µM [3, 5]: 95%
- inhibition at 0.1 µM [4]: 94%

SMILES: Cc1ccc(CCn2c3c(c4c(Cl)c(Cl)ccc42)CN(C)CC3)cn1 [compound 319]
- inhibition at 0.1 µM [1]: 4%
- inhibition at 0.1 µM [2]: 8%
- inhibition at 0.1 µM [3, 5]: 63%
- inhibition at 0.1 µM [4]: 13%

SMILES: Cc1ccc2c(c1)c1c(n2CCc2cnc3ccccc3c2)CCN(C)C1 [compound 320]
- inhibition at 0.1 µM [1]: 18%
- inhibition at 0.1 µM [2]: 56%
- inhibition at 0.1 µM [3, 5]: 66%
- inhibition at 0.1 µM [4]: 61%

SMILES: Cc1ccc2c(c1)c1c(n2C#Cc2cnc3ccccc3c2)CCN(C)C1 [compound 321, 2,8-dimethyl-5-quinolin-3-ylethynyl-2,3,4,5-tetrahydro-1H-pyrido[4,3-b]indole]
- inhibition at 0.1 µM [1]: 90%
- inhibition at 0.1 µM [2]: 66%
- inhibition at 0.1 µM [3, 5]: 59%
- inhibition at 0.1 µM [4]: 94%

SMILES: Cc1ccc(CCn2c3c(c4cc(Cl)c(Cl)cc42)CN(C)CC3)cn1 [compound 322]
- inhibition at 0.1 µM [1]: 49%
- inhibition at 0.1 µM [2]: 22%
- inhibition at 0.1 µM [3, 5]: 58%
- inhibition at 0.1 µM [4]: 59%

SMILES: Cc1ccc2c(c1)c1c(n2/C=C/c2cnc3ccccc3c2)CCN(C)C1 [compound 323]
- inhibition at 0.1 µM [1]: 95%
- inhibition at 0.1 µM [2]: 69%
- inhibition at 0.1 µM [3, 5]: 92%
- inhibition at 0.1 µM [4]: 85%

SMILES: Cc1ccc2c(c1)c1c(n2CNc2ccccc2)CCN(C)C1 [compound 324, (2,8-dimethyl-1,2,3,4-tetrahydro-pyrido[4,3-b]indol-5-ylmethyl)-phenyl-amine]
- inhibition at 0.1 µM [1]: 99%
- inhibition at 0.1 µM [2]: 31%
- inhibition at 0.1 µM [3, 5]: 67%
- inhibition at 0.1 µM [4]: 63%

SMILES: Cc1ccc(CCn2c3c(c4c(Cl)ccc(Cl)c42)CN(C)CC3)cn1 [compound 325]
- inhibition at 0.1 µM [1]: -6%
- Ki ([1]; read-out: Ki α2B): 206 nM
- inhibition at 0.1 µM [2]: 1%
- Ki [3]: 9.88 nM
- inhibition at 0.03 µM ([3]; 0.03 μM compound, read-out: Percentage inhibition of ligand binding, Adrenergic α2A): 53%
- Percentage inhibition of ligand binding, Adrenergic α2A ([3]; 0.1 μM compound, 0.1 µM): 84%
- inhibition at 0.1 µM [3, 5]: 81%
- inhibition at 0.1 µM [4]: -1%

SMILES: Cc1ccc2c(c1)c1c(n2CCc2nc(-c3ccc(Cl)cc3)cs2)CCN(C)C1 [compound 326]
- inhibition at 0.1 µM [1]: 93%
- inhibition at 0.1 µM [2]: 35%
- inhibition at 0.1 µM [3, 5]: 51%
- inhibition at 0.1 µM [4]: 33%

SMILES: Cc1cc(-c2sccc2C)c2c(c1)c1c(n2CCc2ccc(C)nc2)CCN(C)C1 [compound 327]
- inhibition at 0.1 µM [1]: -4%
- inhibition at 0.1 µM [2]: 4%
- inhibition at 0.1 µM [3, 5]: 58%
- inhibition at 0.1 µM [4]: -5%

SMILES: Cc1ccc(C#Cn2c3c(c4cc(C)ccc42)CN(C)CC3)nc1 [compound 328, 2,8-dimethyl-5-(5-methyl-pyridin-2-ylethynyl)-2,3,4,5-tetrahydro-1H-pyrido[4,3-b]indole]
- inhibition at 0.1 µM [1]: 93%
- inhibition at 0.1 µM [2]: 80%
- inhibition at 0.1 µM [3, 5]: 76%
- inhibition at 0.1 µM [4]: 95%

SMILES: CCCc1ccc(/C(C)=C/n2c3c(c4cc(C)ccc42)CN(C)CC3)cn1 [compound 329]
- inhibition at 0.1 µM [1]: 104%
- inhibition at 0.1 µM [2]: 78%
- inhibition at 0.1 µM [3, 5]: 60%
- inhibition at 0.1 µM [4]: 68%

SMILES: Cc1ccc2c(c1)c1c(n2C#Cc2ccc(S(N)(=O)=O)cc2)CCN(C)C1 [compound 330, 4-(2,8-dimethyl-1,2,3,4-tetrahydro-pyrido[4,3-b]indol-5-ylethynyl)-benzenesulfonamide]
- inhibition at 0.1 µM [1]: 99%
- inhibition at 0.1 µM [2]: 72%
- inhibition at 0.1 µM [3, 5]: 58%
- inhibition at 0.1 µM [4]: 98%

SMILES: C/C(=C\n1c2c(c3cc(C)ccc31)CN(C)CC2)c1ccc(C(F)(F)F)nc1 [compound 331]
- inhibition at 0.1 µM [1]: 99%
- inhibition at 0.1 µM [2]: 70%
- inhibition at 0.1 µM [3, 5]: 53%
- inhibition at 0.1 µM [4]: 53%
